{"source": "paper PMC9708767", "about": "“Synthesis of Polymer Precursor 12-Oxododecenoic Acid Utilizing Recombinant Papaya Hydroperoxide Lyase in an Enzyme Cascade” (Applied Biochemistry and Biotechnology, 2022)", "key": {"HPLCP-N": {"target": "HPLCP-N (Carica papaya, UniProt Z9RAA0G2V7)", "sequence (Z9RAA0G2V7 36-496 limits assumed)": "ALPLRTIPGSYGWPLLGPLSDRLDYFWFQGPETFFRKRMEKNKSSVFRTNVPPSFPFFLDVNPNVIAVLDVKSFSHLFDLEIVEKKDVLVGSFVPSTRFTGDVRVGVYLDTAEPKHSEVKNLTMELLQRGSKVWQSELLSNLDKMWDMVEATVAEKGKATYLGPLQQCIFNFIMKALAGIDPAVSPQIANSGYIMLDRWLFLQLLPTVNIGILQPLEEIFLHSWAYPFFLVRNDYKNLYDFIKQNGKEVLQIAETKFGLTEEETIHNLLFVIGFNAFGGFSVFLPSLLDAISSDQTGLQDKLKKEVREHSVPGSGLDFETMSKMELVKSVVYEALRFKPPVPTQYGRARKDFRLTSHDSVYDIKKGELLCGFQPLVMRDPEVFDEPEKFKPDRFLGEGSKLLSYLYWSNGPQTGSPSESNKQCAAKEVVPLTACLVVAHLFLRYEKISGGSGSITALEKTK", "assay": "photometric, decrease at […] nm, nonlinear regression", "type": "biochemical", "conditions": "50 mM potassium phosphate pH 6, 1 M NaCl, 22 °C; 5-100 µM substrate; affinity-enriched enzyme"}, "[1]": {"target": "N-terminally truncated hydroperoxide lyase from Carica papaya (HPL_(CP-N)) (Carica papaya)", "assay": "SEC; Superdex 200 Increase 10/300; 50 mM potassium phosphate buffer pH 7 with 0.5 M NaCl and 0.1% Triton X-100; calibrated with gel filtration markers of 29,000 to 700,000 Da; calculated mass compared with the predicted monomer mass"}}}
{"compound": "CCCCC[C@@H](/C=C/C=C\\CCCCCCCC(=O)O)OO", "note": "[13S-HPODE]", "values": [{"measurement": "Km", "setting": "HPLCP-N", "value": "140 ± 30", "unit": "µM"}]}
{"compound": "CC/C=C\\C[C@@H](/C=C/C=C\\CCCCCCCC(=O)O)OO", "note": "[13S-HPOTE]", "values": [{"measurement": "Km", "setting": "HPLCP-N", "value": "150 ± 40", "unit": "µM"}]}
{"compound": "N-terminally truncated hydroperoxide lyase from Carica papaya (HPL_(CP-N)) (enzyme)", "values": [{"measurement": "stoichiometry N", "setting": "[1]", "value": 4}]}
